ChEMBL document CHEMBL4414609, “High-Affinity Alkynyl Bisubstrate Inhibitors of Nicotinamide N-Methyltransferase (NNMT)” (J Med Chem, 2019)

Tests used:
[1] = biological target: T1, Nicotinamide N-methyltransferase (Homo sapiens, UniProt P40261); assay: Inhibition of N-terminal His6-tagged wild type human NNMT expressed in Escherichia coli NiCo21(DE3) assessed as reduction in 1-methylquinolinium level using quinoline as substrate in presence of SAM and measured every 27 seconds for 5.5 mins by fluorescence-based assay
T1 sequence (P40261 whole entry): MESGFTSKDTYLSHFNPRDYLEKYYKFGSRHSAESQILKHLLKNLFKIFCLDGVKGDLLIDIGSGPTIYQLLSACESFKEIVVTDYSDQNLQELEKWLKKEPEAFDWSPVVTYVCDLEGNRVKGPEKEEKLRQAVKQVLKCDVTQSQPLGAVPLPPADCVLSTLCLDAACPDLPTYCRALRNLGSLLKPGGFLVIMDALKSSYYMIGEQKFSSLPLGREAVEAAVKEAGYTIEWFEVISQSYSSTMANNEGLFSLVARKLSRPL

[2] = biological target: T2, COMT (catechol O-methyltransferase) (Homo sapiens, UniProt P21964); assay: Inhibition of human COMT expressed in Escherichia coli at 10 uM assessed as reduction in SAH level using pyrocatechol as substrate in presence of SAM incubated for 15 mins by LC-MS/MS analysis relative to control; conditions: recombinant human COMT expressed in Escherichia coli, probe pyrocatechol
T2 sequence (P21964 whole entry): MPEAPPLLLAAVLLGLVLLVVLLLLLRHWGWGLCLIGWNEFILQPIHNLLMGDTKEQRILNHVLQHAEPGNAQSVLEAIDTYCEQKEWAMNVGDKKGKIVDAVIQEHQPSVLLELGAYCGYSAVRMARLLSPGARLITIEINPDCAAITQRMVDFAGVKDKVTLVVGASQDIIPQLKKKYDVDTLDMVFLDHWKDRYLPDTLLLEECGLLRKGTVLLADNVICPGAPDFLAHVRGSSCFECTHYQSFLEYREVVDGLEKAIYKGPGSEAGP

[3] = biological target: T3, GAMT (guanidinoacetate N-methyltransferase) (Homo sapiens, UniProt Q14353); assay: Inhibition of human GAMT expressed in Escherichia coli at 10 uM assessed as reduction in SAH level using guanidineacetic acid as substrate in presence of SAM incubated for 30 mins by LC-MS/MS analysis relative to control; conditions: recombinant human GAMT expressed in Escherichia coli, probe guanidineacetic acid
[4] = biological target: T4, TPMT (thiopurine S-methyltransferase) (Homo sapiens, UniProt P51580); assay: Inhibition of human TPMT expressed in Escherichia coli assessed as reduction in SAH level at 1 uM using 6-mercaptopurine as substrate in presence of SAM incubated for 30 mins by LC-MS/MS analysis relative to control; conditions: recombinant human TPMT expressed in Escherichia coli, probe 6-mercaptopurine
T4 sequence (P51580 whole entry): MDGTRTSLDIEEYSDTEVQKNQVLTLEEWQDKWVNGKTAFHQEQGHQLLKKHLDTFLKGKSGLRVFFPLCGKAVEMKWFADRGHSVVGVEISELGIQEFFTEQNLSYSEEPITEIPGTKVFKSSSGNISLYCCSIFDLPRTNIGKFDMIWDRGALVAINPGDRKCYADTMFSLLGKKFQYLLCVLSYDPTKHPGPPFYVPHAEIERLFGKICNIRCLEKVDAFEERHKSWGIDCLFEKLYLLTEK

[5] = biological target: INMT (indolethylamine N-methyltransferase) (Homo sapiens, UniProt O95050); assay: Inhibition of wild type human INMT expressed in Escherichia coli at 1 uM using tryptamine as substrate in presence of SAM incubated for 30 mins by MTase-Glo assay relative to control; conditions: probe tryptamine
Sequence of INMT (indolethylamine N-methyltransferase) (O95050 whole entry): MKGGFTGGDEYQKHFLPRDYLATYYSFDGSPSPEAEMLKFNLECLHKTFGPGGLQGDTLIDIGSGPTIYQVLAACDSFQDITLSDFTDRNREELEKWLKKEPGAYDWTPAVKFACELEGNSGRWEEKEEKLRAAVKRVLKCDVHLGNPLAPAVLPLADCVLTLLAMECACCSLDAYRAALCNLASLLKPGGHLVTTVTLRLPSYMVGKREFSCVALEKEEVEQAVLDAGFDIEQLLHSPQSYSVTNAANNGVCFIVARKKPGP

[6] = biological target: T2, COMT (catechol O-methyltransferase); assay: Inhibition of human COMT expressed in Escherichia coli at 1 uM assessed as reduction in SAH level using pyrocatechol as substrate in presence of SAM incubated for 15 mins by LC-MS/MS analysis relative to control; conditions: recombinant human COMT expressed in Escherichia coli, probe pyrocatechol
[7] = biological target: T5, PNMT (phenylethanolamine N-methyltransferase) (Homo sapiens, UniProt P11086); assay: Inhibition of human PNMT expressed in Escherichia coli at 1 uM assessed as reduction in SAH level using DL-normetanephrine as substrate in presence of SAM incubated for 45 mins by LC-MS/MS analysis relative to control; conditions: recombinant human PNMT expressed in Escherichia coli, probe DL-normetanephrine
T5 sequence (P11086 whole entry): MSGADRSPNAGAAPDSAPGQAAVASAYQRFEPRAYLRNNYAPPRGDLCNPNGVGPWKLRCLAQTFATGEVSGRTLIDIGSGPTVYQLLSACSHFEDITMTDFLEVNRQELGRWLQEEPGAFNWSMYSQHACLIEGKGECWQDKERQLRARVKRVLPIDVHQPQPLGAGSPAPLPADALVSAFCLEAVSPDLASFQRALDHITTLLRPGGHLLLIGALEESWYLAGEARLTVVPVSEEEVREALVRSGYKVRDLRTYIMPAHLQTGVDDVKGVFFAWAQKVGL

[8] = biological target: T3, GAMT (guanidinoacetate N-methyltransferase); assay: Inhibition of human GAMT expressed in Escherichia coli at 1 uM assessed as reduction in SAH level using guanidineacetic acid as substrate in presence of SAM incubated for 30 mins by LC-MS/MS analysis relative to control; conditions: recombinant human GAMT expressed in Escherichia coli, probe guanidineacetic acid
[9] = biological target: HNMT (histamine N-methyltransferase) (Homo sapiens, UniProt P50135); assay: Inhibition of human HNMT expressed in Escherichia coli at 1 uM assessed as reduction in SAH level using histamine as substrate in presence of SAM incubated for 15 mins by LC-MS/MS analysis relative to control; conditions: recombinant human HNMT expressed in Escherichia coli, probe histamine
Sequence of HNMT (histamine N-methyltransferase) (P50135 whole entry): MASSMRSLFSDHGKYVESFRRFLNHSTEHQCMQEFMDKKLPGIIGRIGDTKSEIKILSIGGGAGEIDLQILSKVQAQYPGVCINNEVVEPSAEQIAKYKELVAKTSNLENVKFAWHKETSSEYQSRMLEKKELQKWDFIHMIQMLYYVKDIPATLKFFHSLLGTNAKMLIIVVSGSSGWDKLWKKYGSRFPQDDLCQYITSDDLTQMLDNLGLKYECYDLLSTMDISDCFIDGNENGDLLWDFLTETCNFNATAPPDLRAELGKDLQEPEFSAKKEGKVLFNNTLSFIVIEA

[10] = biological target: DNA (cytosine-5)-methyltransferase 3A (Homo sapiens, UniProt Q9Y6K1); assay: Inhibition of human DNMT3a expressed in insect sf9 cells assessed as reduction in methylated poly(dI-dC)-Poly(dI-dC) level using poly(dI-dC)-poly(dI-dC) as substrate in presence of [3H] SAM incubated for 10 mins by scintillation counting
Sequence of DNA (cytosine-5)-methyltransferase 3A (Q9Y6K1 whole entry, looked up): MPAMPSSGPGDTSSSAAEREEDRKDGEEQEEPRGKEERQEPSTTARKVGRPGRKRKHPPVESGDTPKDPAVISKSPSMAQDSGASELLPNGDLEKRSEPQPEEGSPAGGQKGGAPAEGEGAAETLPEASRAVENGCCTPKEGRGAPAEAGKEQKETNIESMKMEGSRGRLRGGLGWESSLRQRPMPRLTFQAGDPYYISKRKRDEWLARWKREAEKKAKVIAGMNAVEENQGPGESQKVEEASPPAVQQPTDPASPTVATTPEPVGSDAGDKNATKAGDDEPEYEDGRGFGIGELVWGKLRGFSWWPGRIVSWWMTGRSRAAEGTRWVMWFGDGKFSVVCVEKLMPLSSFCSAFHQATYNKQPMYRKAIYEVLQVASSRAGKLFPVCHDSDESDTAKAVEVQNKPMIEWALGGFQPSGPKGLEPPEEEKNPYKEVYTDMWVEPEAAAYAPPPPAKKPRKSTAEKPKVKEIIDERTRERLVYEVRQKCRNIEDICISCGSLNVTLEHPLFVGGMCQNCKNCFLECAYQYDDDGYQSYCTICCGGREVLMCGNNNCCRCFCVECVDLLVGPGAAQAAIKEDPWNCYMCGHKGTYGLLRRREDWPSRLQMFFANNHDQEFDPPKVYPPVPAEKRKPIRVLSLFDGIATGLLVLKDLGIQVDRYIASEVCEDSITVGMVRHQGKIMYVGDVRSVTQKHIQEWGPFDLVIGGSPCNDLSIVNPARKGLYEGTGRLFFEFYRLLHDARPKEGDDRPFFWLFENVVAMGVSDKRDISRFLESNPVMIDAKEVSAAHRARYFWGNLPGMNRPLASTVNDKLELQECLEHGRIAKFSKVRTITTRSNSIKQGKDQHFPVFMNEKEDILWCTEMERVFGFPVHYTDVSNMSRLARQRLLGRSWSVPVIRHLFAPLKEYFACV

[11] = biological target: Protein arginine N-methyltransferase 1 (Homo sapiens, UniProt Q99873); assay: Inhibition of human PRMT1 expressed in Escherichia coli assessed as reduction in methylated histone H4 full length level using histone H4 full length as substrate in presence of [3H] SAM incubated for 20 mins by scintillation counting
Sequence of Protein arginine N-methyltransferase 1 (Q99873 whole entry): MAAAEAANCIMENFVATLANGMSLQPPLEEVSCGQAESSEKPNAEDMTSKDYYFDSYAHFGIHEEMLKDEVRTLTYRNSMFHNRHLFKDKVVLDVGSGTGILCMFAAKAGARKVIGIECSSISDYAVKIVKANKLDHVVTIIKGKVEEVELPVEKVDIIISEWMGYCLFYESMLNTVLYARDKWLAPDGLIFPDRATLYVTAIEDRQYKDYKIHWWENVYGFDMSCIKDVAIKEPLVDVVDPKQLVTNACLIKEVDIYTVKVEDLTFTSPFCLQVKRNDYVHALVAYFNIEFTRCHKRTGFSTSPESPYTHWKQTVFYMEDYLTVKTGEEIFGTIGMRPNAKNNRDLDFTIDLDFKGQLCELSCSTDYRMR

[12] = biological target: Histone-lysine N-methyltransferase ASH1L (Homo sapiens, UniProt Q9NR48); assay: Inhibition of human ASH1L expressed in Escherichia coli assessed as reduction in methylated polynucleosome level using polynucleosome as substrate in presence of [3H] SAM incubated for 15 mins by scintillation counting
[13] = biological target: Histone-lysine N-methyltransferase SETDB1 (Homo sapiens, UniProt Q15047); assay: Inhibition of human SETDB1 expressed in sf9 insect cells assessed as reduction in methylated histone H3 full length level using histone H3 full length as substrate in presence of [3H] SAM incubated for 30 mins by scintillation counting
[14] = biological target: Indolethylamine N-methyltransferase (Homo sapiens, UniProt O95050); assay: Inhibition of wild type human INMT expressed in Escherichia coli using tryptamine as substrate in presence of SAM incubated for 30 mins by MTase-Glo assay
Sequence of Indolethylamine N-methyltransferase (O95050 whole entry): as the sequence (O95050 whole entry) above

U2OS = assay: Cytotoxicity against human U2OS cells at 100 uM after 48 hrs by CellTiter-Glo luminescent cell viability; format: cell-based
[15] = Permeability across apical to basolateral side in human Caco2 cells after 60 mins by HPLC-MS/MS analysis; format: ADME, cell-based; conditions: caco-2, 1 h

NC(=O)c1cccc(C#C[C@@H](CC[C@H](N)C(=O)O)C[C@H]2O[C@@H](n3cnc4c(N)ncnc43)[C@H](O)[C@@H]2O)c1
Ki ([1]; read-out: Ki): 0.0005 µM | Ki ([1]; read-out: pKi (converted)): 0.000501 µM | inhibition at 0.25 h, 10 µM [2]: 43% | inhibition at 0.5 h, 10 µM [3]: 26% | inhibition at 0.5 h, 1 µM [4]: 51% | inhibition at 0.5 h, 1 µM [5]: 14% | inhibition at 0.25 h, 1 µM [6]: 0% | inhibition at 0.75 h, 1 µM [7]: 0% | inhibition at 0.5 h, 1 µM [8]: 0% | inhibition at 0.25 h, 1 µM [9]: 6% | IC50 [10]: 7.6 µM | IC50 [11]: > 10 µM | IC50 [12]: > 10 µM | IC50 [13]: > 10 µM | IC50 [14]: 3.4 µM | Activity (U2OS): Non-Toxic | permeability [15]: Impermeable
